Data as given in patent US8404694B2, “Aurora kinase modulators and method of use” (Amgen Inc., priority 2008, dated 2013).
pEC50: −log10 of the molar value.

Test system: HeLa cells
Test: HeLa cell 24 hr ploidy assay
Format: cell-based
Details: Homo sapiens, 24 hrs treatment, DNA content (ploidy), read-out: 24 h_4N Ploidy EC50—IP (Avg)
Protocol: HeLa Cell 24 hr Ploidy Assay Protocol
The purpose of this assay is to evaluate the ability of selected individual compounds to induce Deoxyribonucleic acid (DNA) content (ploidy) in cells thought failed cell division. Cell cycle analysis is a rapid and efficient way to evaluate the status of DNA content (ploidy) of a given cell. HeLa cells (1×10^4 HeLa cells/well) in 100 ul of media (MEM+10% FBS) were plated in 96-well plates (Packard View) and cultured for 24 hrs at 37° C. maintained in a 5% CO2 atmosphere. The following day, cells were treated for 24 hrs with inhibitor compounds (10 pt. Dose ranging from 0.0024-1.25 umol/L). The compounds were serially diluted in DMSO (0.25% final concentration). The cells were fixed (3.7% Formaldehyde and 1% glutaraldehyde) and permeabilized (1×PBS with 1% BSA and 0.2% Triton X-100) in preparation for nuclear staining. The well plates were stained for 45 minutes at RT in the dark using Hoechest 33342 nuclear stain at 0.5 ug·ml (Stock of 10 mg/ml, Invitrogen, CA, Cat # H3570). The nuclear stain was removed by aspiration and the cells were washed with wash buffer. A Cellomics Array Scan Vti plate reader was used to acquire the DNA ploidy data of the cells using Cell Cycle bioapplication. Numbers for each of “valid cell count/well”, “% of 4N cells” and “% of >4Ncells” were calculated with the assistance of an Activity Base 5.1ca software and dose curves were generated using an XLFit software. With XLFit, final EC50 IP and EC50 transit values, as well as the Max and Min, were calculated for each curve. Many of the Examples described herein were tested, and fund to be active compounds. Table I includes related biological data in the 24 h cell-ploidy content assay, which may be interpreted using the activity gauge below: […]

pEC50: 6.30 to 7.00
SMILES: C=CCOc1cc2nccc(Sc3ccc(Nc4nnc(-c5ccc(Cl)cc5)c5ccccc45)cc3)n2n1 [Example 4, N-(4-(2-(allyloxy)pyrazolo[1,5-a]pyrimidin-7-ylthio)phenyl)-4-(4-chlorophenyl)phthalazin-1-amine]
